Test systems include CCRF-CEM; SK-MEL-28; U-251; NCI-H23; UACC-62; K562; CAKI-1; OVCAR-8; SW-620; M14; A549; HCC 2998; RPMI-8226; SNB-19; SNB-75; NCI-H226; LOX IMVI; HCT-116; EKVX; NCI-H522.
Common to all, as to assay: NCI anticancer screen, dose series, 48 h

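Results reflect a 48-hour exposure of cells in 96-well plates to compound at five concentrations. GI50 is the concentration that inhibits growth by half.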 Active and inactive are the calls of the source. No stated cut-off is given here; in the data, active = GI50 up to about 1.1 µM and inactive = higher.

On to `COc1ccc2[nH]c(C(=O)N3CC(CCl)c4c3cc(N)c3ccccc43)cc2c1` (stereo not given), for which the GI50 was < 0.01 µM (active) in the assay with CCRF-CEM; 0.0142 µM (active) in the assay with SK-MEL-28; < 0.01 µM (active) with U-251; < 0.01 µM (active) in the assay on NCI-H23; < 0.01 µM (active) in the assay on UACC-62; < 0.01 µM (active) with K562. Further, the GI50 in the assay on CAKI-1, in the assay on OVCAR-8, with SW-620, in the assay with M14, in the assay on A549 and with HCC 2998 was < 0.01 µM (active) each time. In addition, the GI50 with RPMI-8226 was 0.0122 µM (active); in the assay on SNB-19 it was < 0.0154 µM (active); with SNB-75, < 0.01 µM (active); with NCI-H226 it was < 0.0133 µM (active); in the assay with LOX IMVI it was < 0.01 µM (active); with HCT-116 it was < 0.01 µM (active). Further, the GI50 in the assay on EKVX was < 0.01 µM (active).
For the compound `COC1=CC(=O)c2c(c(COC(C)=O)cn2C)C1=O`, the GI50 is 0.234 µM (active) in the assay on CCRF-CEM; 0.22 µM (active) in the assay with SK-MEL-28; 0.129 µM (active) in the assay with U-251; 0.0715 µM (active) with NCI-H23; 0.13 µM (active) in the assay on UACC-62; 0.15 µM (active) in the assay on K562. For the same compound, the GI50 in the assay with CAKI-1 was 0.0405 µM (active); with OVCAR-8, 0.122 µM (active); with SW-620, 0.0249 µM (active); with M14, 0.0632 µM (active); in the assay with A549 it was 0.207 µM (active); in the assay on RPMI-8226 it was 0.211 µM (active). The GI50 with NCI-H522 is 0.0158 µM (active); with SNB-19 it was 0.345 µM (active); in the assay on SNB-75 it was 0.308 µM (active); with NCI-H226 it was 0.137 µM (active); with LOX IMVI, 0.0887 µM (active); with HCT-116, 0.0347 µM (active). Moreover, the GI50 in the assay with EKVX was 0.279 µM (active).
On to `COc1ccc(CC(CO)NC(=O)OCc2ccccc2)cc1Oc1ccc(CC(CO)NC(=O)OCc2ccccc2)cc1` (stereo not given), for which the GI50 with CCRF-CEM is 5.77 µM (inactive); in the assay on SK-MEL-28 it was 18.3 µM (inactive); with U-251, 21.2 µM (inactive); with NCI-H23 it was 16.5 µM (inactive); in the assay with UACC-62 it was 11.5 µM (inactive); in the assay on CAKI-1, 20.4 µM (inactive). The GI50 in the assay on SW-620 was 32.2 µM (inactive); in the assay on M14, 10.7 µM (inactive); in the assay on A549, 11.7 µM (inactive); with HCC 2998, 21.2 µM (inactive); with RPMI-8226, 6.27 µM (inactive); with NCI-H522, 1.47 µM (inactive). In addition, the GI50 is 19 µM (inactive) with SNB-19, 0.37 µM (active) with SNB-75, 15.1 µM (inactive) in the assay with HCT-116 and 3.85 µM (inactive) in the assay on EKVX.
Regarding `COc1nc(Cl)nc(N[C@H](C)c2c3ccccc3cc3ccccc23)n1`, the GI50 was 10.4 µM (inactive) in the assay with CCRF-CEM; 2.3 µM (inactive) with SK-MEL-28; 16.4 µM (inactive) in the assay with U-251; 16.9 µM (inactive) in the assay with NCI-H23; 0.628 µM (active) with UACC-62; 8.49 µM (inactive) with K562. The GI50 was 11.6 µM (inactive) in the assay with CAKI-1; 14.8 µM (inactive) in the assay on OVCAR-8; 15.2 µM (inactive) in the assay on SW-620; 27.7 µM (inactive) in the assay with A549; 5.3 µM (inactive) with RPMI-8226; 7.6 µM (inactive) in the assay with NCI-H522. Further, the GI50 was 16.3 µM (inactive) in the assay with SNB-19; 21.8 µM (inactive) in the assay with SNB-75; 13.1 µM (inactive) in the assay with NCI-H226; 15.6 µM (inactive) in the assay on LOX IMVI; 12.4 µM (inactive) in the assay with HCT-116; 16.1 µM (inactive) with EKVX.
Consider `Cc1ccc(NC(=O)CC(=O)n2nc(-c3ccccc3)c(/N=N/c3ccccc3C(=O)O)c2-c2ccccc2)cc1`, for which the GI50 with SK-MEL-28, in the assay on UACC-62, in the assay with K562, with CAKI-1, in the assay with OVCAR-8 and with SW-620 was > 100 µM (inactive) in each case. The GI50 in the assay on A549 is > 100 µM (inactive); in the assay with HCC 2998, 66.2 µM (inactive); with RPMI-8226 it was > 100 µM (inactive); in the assay on NCI-H522, > 100 µM (inactive); with SNB-19 it was > 100 µM (inactive); in the assay on NCI-H226 it was > 100 µM (inactive). In addition, the GI50 is > 100 µM (inactive) with LOX IMVI, > 100 µM (inactive) with HCT-116 and 1.91 µM (inactive) in the assay with EKVX.
Turning to `CCN(CC)CCCNC(=O)c1ccccc1Nc1c(Cl)cccc1Cl`, the GI50 in the assay with CCRF-CEM was 6.32 µM (inactive); in the assay on SK-MEL-28 it was 2.94 µM (inactive); with NCI-H23 it was 16.6 µM (inactive); in the assay on UACC-62 it was 12 µM (inactive); with K562 it was 6.76 µM (inactive); in the assay with OVCAR-8 it was 15.7 µM (inactive). The GI50 was 13.6 µM (inactive) in the assay on SW-620; 2.64 µM (inactive) in the assay with M14; 15.7 µM (inactive) in the assay with A549; 7.03 µM (inactive) in the assay on HCC 2998; 5.68 µM (inactive) in the assay with RPMI-8226; 15.6 µM (inactive) in the assay on SNB-19. The GI50 in the assay on SNB-75 was 3.43 µM (inactive); in the assay with NCI-H226 it was 12.4 µM (inactive); with LOX IMVI it was 8.55 µM (inactive); in the assay on HCT-116, 11.5 µM (inactive); with EKVX, 11.1 µM (inactive).
As for `O=C(O)CC/C(=N\Nc1nsc2ccccc12)c1ccccc1`, the GI50 with CCRF-CEM is 26.6 µM (inactive); in the assay with SK-MEL-28, 34.6 µM (inactive); in the assay with U-251, 39.1 µM (inactive); with NCI-H23 it was 27.2 µM (inactive); with UACC-62, 58.5 µM (inactive); in the assay on K562, 26.8 µM (inactive). For the same compound, the GI50 with OVCAR-8 is 66.7 µM (inactive); with SW-620 it was 52.4 µM (inactive); in the assay with M14, 54.5 µM (inactive); in the assay on A549, > 100 µM (inactive); in the assay on HCC 2998, 30.5 µM (inactive); in the assay with RPMI-8226, 18.5 µM (inactive). The GI50 with SNB-19 is > 100 µM (inactive); with SNB-75 it was 0.82 µM (active); with LOX IMVI, 29.5 µM (inactive); in the assay with HCT-116, 41.6 µM (inactive); in the assay on EKVX, > 100 µM (inactive).
`Cc1cccc2sc(-c3ccc(O)cc3)nc12`: the GI50 is 16.9 µM (inactive) in the assay on CCRF-CEM; 18.5 µM (inactive) with SK-MEL-28; 19.3 µM (inactive) in the assay with U-251; 16.5 µM (inactive) in the assay on NCI-H23; 16 µM (inactive) in the assay with UACC-62; 33.3 µM (inactive) in the assay with K562. For the same compound, the GI50 in the assay on CAKI-1 was 16.5 µM (inactive); in the assay with OVCAR-8, 16.7 µM (inactive); in the assay on SW-620, 11.5 µM (inactive); in the assay with M14, 15.2 µM (inactive); with A549, 12.8 µM (inactive); in the assay with RPMI-8226 it was 20.9 µM (inactive). For the same compound, the GI50 with NCI-H522 was 16.3 µM (inactive); in the assay with SNB-19, 17.8 µM (inactive); in the assay on SNB-75, 12.6 µM (inactive); with NCI-H226, 14.8 µM (inactive); with LOX IMVI, 18.4 µM (inactive); in the assay on HCT-116, 15.6 µM (inactive). Also, the GI50 in the assay with EKVX was 0.579 µM (active).
Take `O=C1CN2Cc3cc(N4CCOCC4)ccc3N=C2N1`: the GI50 in the assay with CCRF-CEM is 5.43 µM (inactive); in the assay with SK-MEL-28 it was > 100 µM (inactive); in the assay on U-251, 39.4 µM (inactive); in the assay on NCI-H23, 20.3 µM (inactive); in the assay on UACC-62, 26.2 µM (inactive); with K562, 2.91 µM (inactive). For the same compound, the GI50 with CAKI-1 was 56.5 µM (inactive); with OVCAR-8 it was 72.9 µM (inactive); with SW-620 it was 47.1 µM (inactive); with M14, 33 µM (inactive); in the assay on RPMI-8226, 67 µM (inactive); in the assay with SNB-19, > 100 µM (inactive). Also, the GI50 was 31.5 µM (inactive) in the assay on SNB-75, 44.6 µM (inactive) with NCI-H226, > 100 µM (inactive) in the assay on LOX IMVI and 21.3 µM (inactive) in the assay on HCT-116.
For the compound `CCOC(=O)C(C)OC(=O)c1ccc(C)cc1` (stereo not given), the GI50 with CCRF-CEM is > 100 µM (inactive); in the assay on SK-MEL-28 it was > 100 µM (inactive); in the assay with U-251, > 100 µM (inactive); in the assay with NCI-H23 it was > 100 µM (inactive); in the assay on UACC-62, > 100 µM (inactive); in the assay with K562, 64.1 µM (inactive). In addition, the GI50 with OVCAR-8, in the assay on SW-620, in the assay with M14, in the assay on A549, with HCC 2998 and with NCI-H522 was > 100 µM (inactive) in each case. Further, the GI50 in the assay with SNB-19, in the assay with SNB-75, with LOX IMVI, in the assay on HCT-116 and with EKVX was > 100 µM (inactive) throughout.
As for `COc1ccc2c(=O)c(O)c(-c3ccc(OC)c(OC)c3)oc2c1`, the GI50 in the assay on CCRF-CEM was 2.36 µM (inactive); in the assay on SK-MEL-28 it was 8.53 µM (inactive); with U-251, 3.52 µM (inactive); with UACC-62, 3.23 µM (inactive); in the assay on K562, 4.53 µM (inactive); with CAKI-1, 3.44 µM (inactive). In addition, the GI50 in the assay with OVCAR-8 is 3.71 µM (inactive); with SW-620, 4.97 µM (inactive); in the assay with M14 it was 5.45 µM (inactive); with A549 it was 4.92 µM (inactive); in the assay with HCC 2998 it was 27.9 µM (inactive); in the assay on RPMI-8226, 4.09 µM (inactive). Moreover, the GI50 in the assay with NCI-H522 is 3.13 µM (inactive); with SNB-19, 15.8 µM (inactive); in the assay on LOX IMVI, 5.58 µM (inactive); in the assay with HCT-116, 4.97 µM (inactive); in the assay on EKVX, 6.95 µM (inactive).

For the origin of these results see ChEMBL document CHEMBL1201862, “PubChem BioAssay data set” (2004).
